Some test systems named below: DU-145; HCT-116; HCT-15; HOP-62; HOP-92; K562; LOX IMVI; MDA-MB-435; MOLT-4; NCI-H226; NCI-H522; OVCAR-5; RXF 393; SF-268; SF-295; SNB-75; TK-10; UACC-257; UO-31.
Assay in all cases: NCI-60 cell line screen, 48 h

Each structure is given as a SMILES string.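 These data come from cells grown in 96-well plates and exposed to compound for 48 hours at five concentrations. At the GI50, growth is halved.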 Calls of active or inactive are those of the source. Rule as the data show it: active = GI50 up to about 1.1 µM and inactive = higher.

With `O=C1C(c2c(O)[nH]c3ccc(I)cc23)=Nc2ccccc21`, the GI50 in the assay on DU-145 is 4.74 µM (inactive); with HCT-116, 1.67 µM (inactive); in the assay on HCT-15, 7.21 µM; in the assay on HOP-62, 4.7 µM (inactive); in the assay with HOP-92, 3.24 µM (inactive); in the assay on K562, 9.66 µM (inactive). For the same compound, the GI50 in the assay with LOX IMVI is 4.88 µM (inactive); in the assay on MDA-MB-435, 12.1 µM (inactive); in the assay with MOLT-4, 49.2 µM (inactive); in the assay on NCI-H226, 2.55 µM (inactive); in the assay on NCI-H522, 4.2 µM (inactive); with OVCAR-5, 11.8 µM (inactive). In addition, the GI50 in the assay with RXF 393 is 3.24 µM (inactive); in the assay with SF-268, 4.07 µM (inactive); in the assay with SF-295, 4.88 µM (inactive); in the assay on SNB-75, 4.23 µM (inactive); with TK-10 it was 4.54 µM (inactive); in the assay on UACC-257, 17.9 µM (inactive). In the assay with UO-31, the GI50 is 4.02 µM (inactive).
As for `CCCCC(=O)Nc1ccc2cc(C(=O)OC)c(Cl)nc2n1`, the GI50 in the assay on DU-145 is 3.11 µM (inactive); in the assay on HCT-116 it was > 93.5 µM (inactive); with HCT-15, more than 100 µM; in the assay on HOP-62, 7.11 µM (inactive); in the assay with HOP-92, > 100 µM (inactive); in the assay with K562, > 100 µM (inactive). Further, the GI50 with LOX IMVI, in the assay with MDA-MB-435, with MOLT-4, in the assay on NCI-H226, in the assay on NCI-H522 and with OVCAR-5 was > 100 µM (inactive) throughout. Moreover, the GI50 with RXF 393 is > 100 µM (inactive); in the assay on SF-268, > 100 µM (inactive); with SF-295 it was 40.1 µM (inactive); in the assay with SNB-75 it was > 100 µM (inactive); in the assay with TK-10, > 71.3 µM (inactive); with UACC-257 it was 43.7 µM (inactive). Besides, in the assay with UO-31, the GI50 is 19.9 µM (inactive).
As for `FC(F)(F)c1ccc2nc(Sc3ccc4ccccc4c3)cnc2c1`, the GI50 was > 100 µM (inactive) in the assay on DU-145; 46 µM (inactive) with HCT-116; 44.7 µM with HCT-15; 74.8 µM (inactive) in the assay on HOP-62; > 100 µM (inactive) in the assay with HOP-92; 45.8 µM (inactive) in the assay on K562. Further, the GI50 in the assay with LOX IMVI is 44.1 µM (inactive); in the assay on MDA-MB-435, 55.2 µM (inactive); with MOLT-4, 24.5 µM (inactive); in the assay on NCI-H226, 87.9 µM (inactive); with NCI-H522, 37.5 µM (inactive); in the assay with OVCAR-5, > 100 µM (inactive). The GI50 was 21.9 µM (inactive) in the assay with RXF 393; > 100 µM (inactive) in the assay on SF-268; 65.2 µM (inactive) with SF-295; > 100 µM (inactive) in the assay with SNB-75; > 100 µM (inactive) in the assay with TK-10; 43.8 µM (inactive) in the assay on UACC-257. Further, the GI50 in the assay on UO-31 was > 100 µM (inactive).
On to `c1ccc(C(CCN2CC3CCC(CC3)C2)c2ccccc2)cc1`, for which the GI50 is 38.4 µM (inactive) in the assay with DU-145; 20.1 µM (inactive) in the assay on HCT-116; 21.8 µM in the assay on HCT-15; 27.5 µM (inactive) in the assay on HOP-62; 22.9 µM (inactive) in the assay on HOP-92; 18.4 µM (inactive) in the assay on K562. Further, the GI50 in the assay with LOX IMVI was 16.9 µM (inactive); with MDA-MB-435, 25.1 µM (inactive); in the assay with MOLT-4, 18.2 µM (inactive); in the assay on NCI-H226 it was 19.6 µM (inactive); in the assay on NCI-H522, 16.6 µM (inactive); with OVCAR-5, 20.1 µM (inactive). The GI50 with RXF 393 was 18.8 µM (inactive); with SF-268, 25.6 µM (inactive); in the assay with SF-295 it was 26 µM (inactive); in the assay on SNB-75 it was 24.2 µM (inactive); with TK-10, 23.1 µM (inactive); with UACC-257 it was 16.2 µM (inactive). For the same compound, the GI50 in the assay with UO-31 is 14.9 µM (inactive).
Regarding `CN1CCN(c2ccc(-n3cc(C(=O)O)c(=O)c4cc(F)c(N5CCN(C)CC5)cc43)nc2)CC1`, the GI50 is > 100 µM (inactive) in the assay with DU-145; 69.3 µM (inactive) in the assay with HCT-116; more than 100 µM in the assay with HCT-15; > 100 µM (inactive) with HOP-62; > 100 µM (inactive) in the assay with HOP-92; 62.8 µM (inactive) in the assay with K562. The GI50 is > 100 µM (inactive) in the assay with LOX IMVI; > 100 µM (inactive) with MDA-MB-435; > 100 µM (inactive) in the assay with MOLT-4; > 100 µM (inactive) in the assay on NCI-H226; 78.5 µM (inactive) in the assay with NCI-H522; > 100 µM (inactive) in the assay on OVCAR-5. Besides, the GI50 in the assay with RXF 393, with SF-268, in the assay with SF-295, with SNB-75, in the assay on TK-10 and with UACC-257 was > 100 µM (inactive) in each case. The GI50 in the assay on UO-31 was > 100 µM (inactive).
For the compound `C[C@@H](CC(=O)O)OC1OC(COC(=O)C(C)(C)C)C(OC(=O)C(C)(C)C)C(OC(=O)C(C)(C)C)C1OC(=O)C(C)(C)C` (stereo not given in full), the GI50 in the assay with DU-145 was 59.6 µM (inactive); in the assay with HCT-116, 47.5 µM (inactive); in the assay on HCT-15, 32.4 µM; in the assay on HOP-62, > 100 µM (inactive); with HOP-92, 38.1 µM (inactive); in the assay with K562 it was 34.4 µM (inactive). For the same compound, the GI50 in the assay on LOX IMVI was 97.3 µM (inactive); with MDA-MB-435, 53.3 µM (inactive); in the assay on MOLT-4, 38.6 µM (inactive); with NCI-H226, > 100 µM (inactive); in the assay with NCI-H522 it was 57 µM (inactive); with OVCAR-5 it was > 100 µM (inactive). Further, the GI50 is 45.3 µM (inactive) in the assay on RXF 393; 50.7 µM (inactive) in the assay on SF-268; 50.5 µM (inactive) in the assay on SF-295; 72.8 µM (inactive) in the assay with SNB-75; 99.3 µM (inactive) in the assay on TK-10; > 100 µM (inactive) with UACC-257. Moreover, the GI50 in the assay with UO-31 is > 10 µM (inactive).
Turning to `COc1ccc(C(F)(F)F)cc1NC(=O)O/N=C(/Cl)C(C)C`, the GI50 in the assay with DU-145 is 19.2 µM (inactive); in the assay on HCT-116, 16.4 µM (inactive); with HCT-15, 5.18 µM; in the assay on HOP-62 it was 21.6 µM (inactive); in the assay on HOP-92, 7.33 µM (inactive); with K562 it was 1.91 µM (inactive). Also, the GI50 in the assay with LOX IMVI was 5.27 µM (inactive); in the assay on MDA-MB-435, 20.8 µM (inactive); in the assay on MOLT-4, 2.05 µM (inactive); in the assay on NCI-H226, 17.7 µM (inactive); with NCI-H522, 2.26 µM (inactive); in the assay with OVCAR-5, 20.6 µM (inactive). The GI50 was 19.6 µM (inactive) in the assay on RXF 393; 23.8 µM (inactive) in the assay with SF-268; > 47.1 µM (inactive) in the assay on SF-295; 16.8 µM (inactive) in the assay on SNB-75; 15.1 µM (inactive) in the assay with TK-10; 19.7 µM (inactive) in the assay with UACC-257. Moreover, in the assay on UO-31, the GI50 is 18.5 µM (inactive).
Turning to `C[C@@]12C=CC3C/C(=N\C(N)=S)C=C(CCCC4OCCO4)[C@]3(CC1)C2` (stereo not given in full), the GI50 is 21 µM (inactive) in the assay with DU-145; 13.7 µM (inactive) in the assay on HCT-116; 17.7 µM in the assay with HCT-15; 29.5 µM (inactive) in the assay with HOP-62; 34.4 µM (inactive) in the assay with HOP-92; 17.9 µM (inactive) with K562. The GI50 in the assay with LOX IMVI is 17.4 µM (inactive); in the assay on MDA-MB-435 it was 16.9 µM (inactive); in the assay with MOLT-4 it was 9.44 µM (inactive); with NCI-H226 it was 23.3 µM (inactive); in the assay with NCI-H522, 6.87 µM (inactive); in the assay on OVCAR-5, 15.7 µM (inactive). Besides, the GI50 with RXF 393 was 16 µM (inactive); with SF-268, 29.4 µM (inactive); in the assay with SF-295, 23.1 µM (inactive); in the assay on SNB-75, 28.6 µM (inactive); in the assay with TK-10, 20.6 µM (inactive); in the assay with UACC-257 it was 18.8 µM (inactive). Further, the GI50 in the assay on UO-31 was 17.6 µM (inactive).
Turning to `O=[N+]([O-])c1ccc(/C=N/n2c(CO)nc3ccccc32)o1`, the GI50 in the assay with DU-145 was 3.27 µM (inactive); with HCT-116, 1.71 µM (inactive); with HCT-15, 2.84 µM; in the assay on HOP-62, 11.9 µM (inactive); in the assay on HOP-92 it was 3.51 µM (inactive); with K562 it was 4.67 µM (inactive). The GI50 in the assay with LOX IMVI is 2.92 µM (inactive); in the assay on MDA-MB-435, 3.4 µM (inactive); in the assay on MOLT-4 it was 1.1 µM (active); with NCI-H226 it was 15.1 µM (inactive); in the assay on NCI-H522, 2.28 µM (inactive); with OVCAR-5, 11.9 µM (inactive). In addition, the GI50 was 5.07 µM (inactive) in the assay on RXF 393; 10.4 µM (inactive) with SF-268; 11.7 µM (inactive) in the assay with SF-295; 24.6 µM (inactive) with SNB-75; 6.55 µM (inactive) in the assay on TK-10; 2.44 µM (inactive) in the assay with UACC-257. For the same compound, the GI50 in the assay on UO-31 is 8.32 µM (inactive).
`Clc1ncnc2c1nc(C#Cc1ccccc1)n2Cc1ccccc1`: the GI50 in the assay on DU-145 was 7.52 µM (inactive); in the assay with HCT-116, 34 µM (inactive); in the assay on HCT-15 it was 4.81 µM; with HOP-62, 24.7 µM (inactive); in the assay on HOP-92, 27.1 µM (inactive); in the assay with K562, 3.67 µM (inactive). Also, the GI50 is 11.2 µM (inactive) in the assay on LOX IMVI; 11.9 µM (inactive) in the assay on MDA-MB-435; 3.34 µM (inactive) with MOLT-4; 45.3 µM (inactive) in the assay on NCI-H226; 16.4 µM (inactive) in the assay on NCI-H522; > 100 µM (inactive) with OVCAR-5. Also, the GI50 in the assay with RXF 393 is 16.3 µM (inactive); in the assay on SF-268 it was 40.9 µM (inactive); in the assay with SF-295 it was > 100 µM (inactive); in the assay on SNB-75 it was 25.8 µM (inactive); with TK-10 it was > 100 µM (inactive); in the assay with UACC-257 it was 25.8 µM (inactive). In the assay on UO-31, the GI50 was 2.14 µM (inactive).

The values are drawn from ChEMBL document CHEMBL1201862, “PubChem BioAssay data set” (2004).
